We go through seven molecules from article PMC4994520 (European journal of medicinal chemistry, 2012).

The target in one test is PDE1A (Homo sapiens, UniProt P54750). As to the kind of experiment: PDE1A inhibition, IMAP fluorescence polarization assay. The class given is biochemical.
The target in a further test is PDE2A (Homo sapiens, UniProt O00408). As to the kind of experiment: PDE2A inhibition, IMAP fluorescence polarization assay. The test is classed as biochemical. A general note: Fluorescence polarisation rises when a labelled molecule tumbles more slowly, as on binding a larger partner.
In a further test the target is PDE10A (Homo sapiens, UniProt Q9Y233). Put plainly: PDE10A inhibition, IMAP fluorescence polarization assay. The class given is biochemical.
The target in the next test is PDE9A (Homo sapiens, UniProt O76083). Put plainly: PDE9A inhibition, IMAP fluorescence polarization assay. The test is classed as biochemical.
In another test the target is PDE3B (Homo sapiens, UniProt Q13370). As to the kind of experiment: PDE3B inhibition, IMAP fluorescence polarization assay. The test is classed as biochemical.
The target in another test is PDE3A (Homo sapiens, UniProt Q14432). Put plainly: PDE3A inhibition, IMAP fluorescence polarization assay. The test is classed as biochemical.
The next test addresses PDE11A (Homo sapiens, UniProt Q9HCR9). Put plainly: PDE11A inhibition, IMAP fluorescence polarization assay. The class given is biochemical. As to conditions: for selectivity profile (selectivity index) PDE5 versus PDE11: cGMP as the substrate.
The target of test [1] is T1, human PDE5 (Homo sapiens, UniProt O76074). As to the kind of experiment: PDE5 inhibition, IMAP fluorescence polarization phosphodiesterase assay. The class given is biochemical. As to conditions: for inhibition at 10 µM: read-out: % PDE5 inhibition at 10 μM.
Test [2] concerns the target T1, human PDE5. As to conditions: tadalafil and earlier analogues, Table 1; cited from earlier work.
The mark [3] stands for this setting: read-out: PDE1A inhibition IC50 μM, substrate cGMP.
Setting [4] is: read-out: PDE2A inhibition IC50 μM, substrate cGMP.
The mark [5] stands for this setting: PDE10A inhibition IC50 μM, substrate cAMP.
Setting [6] is: PDE10A inhibition IC50 μM, substrate cGMP.
[7] abbreviates: read-out: PDE3B inhibition IC50 μM, substrate cGMP.
The mark [8] stands for this setting: read-out: PDE3A inhibition IC50 μM, substrate cGMP.
Where [9] appears, read: PDE11A inhibition IC50 μM, substrate cAMP.
The mark [10] stands for this setting: PDE11A inhibition IC50 μM, substrate cGMP.

SMILES strings stand for the structures. Where two headings read alike, the source gives them in different places.

Chain of PDE9A (O76083 whole entry): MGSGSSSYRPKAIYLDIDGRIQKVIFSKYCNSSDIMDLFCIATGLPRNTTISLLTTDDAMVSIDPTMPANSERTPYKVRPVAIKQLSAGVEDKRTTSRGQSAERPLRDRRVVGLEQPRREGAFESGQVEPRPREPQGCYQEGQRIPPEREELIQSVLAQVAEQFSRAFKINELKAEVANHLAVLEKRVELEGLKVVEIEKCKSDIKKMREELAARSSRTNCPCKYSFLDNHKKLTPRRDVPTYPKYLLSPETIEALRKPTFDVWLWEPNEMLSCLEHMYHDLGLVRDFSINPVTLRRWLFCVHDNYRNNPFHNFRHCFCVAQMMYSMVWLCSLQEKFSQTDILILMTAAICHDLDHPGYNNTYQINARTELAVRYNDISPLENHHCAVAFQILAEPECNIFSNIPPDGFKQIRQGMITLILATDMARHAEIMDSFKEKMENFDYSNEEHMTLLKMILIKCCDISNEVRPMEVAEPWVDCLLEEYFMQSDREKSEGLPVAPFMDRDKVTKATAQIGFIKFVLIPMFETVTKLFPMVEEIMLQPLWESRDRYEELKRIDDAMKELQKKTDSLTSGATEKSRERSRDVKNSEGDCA
Chain of PDE1A (P54750 whole entry): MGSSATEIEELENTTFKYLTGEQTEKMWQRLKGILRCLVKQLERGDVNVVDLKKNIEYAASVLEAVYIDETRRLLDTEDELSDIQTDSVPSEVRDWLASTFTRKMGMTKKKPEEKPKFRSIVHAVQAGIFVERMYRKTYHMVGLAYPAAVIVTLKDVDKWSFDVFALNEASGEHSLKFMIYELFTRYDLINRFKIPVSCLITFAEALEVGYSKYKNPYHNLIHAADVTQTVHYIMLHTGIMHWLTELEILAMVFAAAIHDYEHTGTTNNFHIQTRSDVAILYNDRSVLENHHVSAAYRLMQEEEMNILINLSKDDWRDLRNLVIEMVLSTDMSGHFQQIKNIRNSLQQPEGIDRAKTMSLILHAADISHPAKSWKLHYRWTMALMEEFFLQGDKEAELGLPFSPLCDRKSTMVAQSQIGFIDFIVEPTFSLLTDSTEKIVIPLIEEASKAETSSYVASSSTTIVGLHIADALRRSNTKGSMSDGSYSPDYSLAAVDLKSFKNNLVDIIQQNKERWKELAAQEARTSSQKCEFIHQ
Chain of PDE10A (Q9Y233 290-1055 limits assumed): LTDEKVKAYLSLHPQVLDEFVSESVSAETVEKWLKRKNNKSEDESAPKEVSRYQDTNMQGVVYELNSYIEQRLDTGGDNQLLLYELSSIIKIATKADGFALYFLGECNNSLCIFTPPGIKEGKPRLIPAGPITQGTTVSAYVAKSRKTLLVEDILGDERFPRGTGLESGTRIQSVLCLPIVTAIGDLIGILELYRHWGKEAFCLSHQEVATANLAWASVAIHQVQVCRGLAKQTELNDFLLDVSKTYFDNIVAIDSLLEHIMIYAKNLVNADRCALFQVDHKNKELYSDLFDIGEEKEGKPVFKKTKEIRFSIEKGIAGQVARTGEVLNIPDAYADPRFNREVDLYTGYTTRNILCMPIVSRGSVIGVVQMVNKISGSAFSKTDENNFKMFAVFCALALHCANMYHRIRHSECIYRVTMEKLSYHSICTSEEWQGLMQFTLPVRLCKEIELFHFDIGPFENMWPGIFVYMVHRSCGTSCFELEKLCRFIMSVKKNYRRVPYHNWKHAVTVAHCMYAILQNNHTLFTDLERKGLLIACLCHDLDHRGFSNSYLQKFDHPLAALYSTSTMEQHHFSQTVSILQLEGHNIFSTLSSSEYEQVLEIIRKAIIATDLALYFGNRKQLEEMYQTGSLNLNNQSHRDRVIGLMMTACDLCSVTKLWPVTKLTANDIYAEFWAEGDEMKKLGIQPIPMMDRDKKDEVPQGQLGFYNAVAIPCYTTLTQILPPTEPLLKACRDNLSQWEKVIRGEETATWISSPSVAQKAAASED
Chain of PDE11A (Q9HCR9 whole entry): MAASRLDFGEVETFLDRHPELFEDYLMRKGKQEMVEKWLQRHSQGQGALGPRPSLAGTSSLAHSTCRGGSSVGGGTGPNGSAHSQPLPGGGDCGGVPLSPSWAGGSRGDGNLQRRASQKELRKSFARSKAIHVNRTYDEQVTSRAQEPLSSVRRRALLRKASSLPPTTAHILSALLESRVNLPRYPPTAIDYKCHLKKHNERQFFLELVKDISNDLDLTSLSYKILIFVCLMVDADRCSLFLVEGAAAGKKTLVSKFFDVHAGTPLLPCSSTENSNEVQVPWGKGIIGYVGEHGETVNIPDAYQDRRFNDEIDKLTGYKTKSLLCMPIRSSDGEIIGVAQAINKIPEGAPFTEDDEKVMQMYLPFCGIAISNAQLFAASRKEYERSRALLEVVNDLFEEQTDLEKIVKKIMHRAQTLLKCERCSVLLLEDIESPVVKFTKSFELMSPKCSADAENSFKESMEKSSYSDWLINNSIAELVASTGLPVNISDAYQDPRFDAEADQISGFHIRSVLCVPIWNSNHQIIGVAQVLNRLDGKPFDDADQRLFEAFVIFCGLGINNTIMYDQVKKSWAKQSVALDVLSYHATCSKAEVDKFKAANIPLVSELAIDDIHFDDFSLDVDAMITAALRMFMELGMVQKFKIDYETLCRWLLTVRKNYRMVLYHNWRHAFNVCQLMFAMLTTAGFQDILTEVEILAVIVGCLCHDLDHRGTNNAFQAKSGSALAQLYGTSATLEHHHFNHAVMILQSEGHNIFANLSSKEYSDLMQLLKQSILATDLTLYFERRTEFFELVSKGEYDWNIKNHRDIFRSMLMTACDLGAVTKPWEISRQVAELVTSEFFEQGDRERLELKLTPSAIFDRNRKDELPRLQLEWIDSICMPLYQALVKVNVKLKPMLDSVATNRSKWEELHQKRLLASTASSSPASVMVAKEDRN
Chain of PDE2A (O00408 whole entry): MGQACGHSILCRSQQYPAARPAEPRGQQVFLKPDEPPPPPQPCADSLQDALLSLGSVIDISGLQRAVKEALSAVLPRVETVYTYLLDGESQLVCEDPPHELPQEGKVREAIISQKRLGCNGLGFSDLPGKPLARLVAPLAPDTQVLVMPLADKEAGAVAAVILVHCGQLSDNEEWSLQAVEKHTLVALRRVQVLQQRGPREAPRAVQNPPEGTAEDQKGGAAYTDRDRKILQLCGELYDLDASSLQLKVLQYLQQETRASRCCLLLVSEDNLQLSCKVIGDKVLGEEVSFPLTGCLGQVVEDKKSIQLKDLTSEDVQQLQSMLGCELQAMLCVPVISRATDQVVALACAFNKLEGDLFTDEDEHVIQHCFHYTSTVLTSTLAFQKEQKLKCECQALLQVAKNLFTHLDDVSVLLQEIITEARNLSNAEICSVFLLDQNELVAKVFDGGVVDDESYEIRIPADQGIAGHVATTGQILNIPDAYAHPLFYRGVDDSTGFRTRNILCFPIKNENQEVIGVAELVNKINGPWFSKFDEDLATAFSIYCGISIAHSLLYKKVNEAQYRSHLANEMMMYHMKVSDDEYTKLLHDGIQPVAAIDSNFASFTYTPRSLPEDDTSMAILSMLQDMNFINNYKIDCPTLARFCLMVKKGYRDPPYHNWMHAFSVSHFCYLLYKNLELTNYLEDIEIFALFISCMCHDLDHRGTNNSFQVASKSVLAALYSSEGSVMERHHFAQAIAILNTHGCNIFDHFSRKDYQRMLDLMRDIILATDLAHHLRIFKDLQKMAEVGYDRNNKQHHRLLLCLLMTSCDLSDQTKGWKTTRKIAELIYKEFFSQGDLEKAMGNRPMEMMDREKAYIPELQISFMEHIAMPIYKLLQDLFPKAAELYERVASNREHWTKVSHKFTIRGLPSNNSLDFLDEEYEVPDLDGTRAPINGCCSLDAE
Chain of PDE3B (Q13370 whole entry): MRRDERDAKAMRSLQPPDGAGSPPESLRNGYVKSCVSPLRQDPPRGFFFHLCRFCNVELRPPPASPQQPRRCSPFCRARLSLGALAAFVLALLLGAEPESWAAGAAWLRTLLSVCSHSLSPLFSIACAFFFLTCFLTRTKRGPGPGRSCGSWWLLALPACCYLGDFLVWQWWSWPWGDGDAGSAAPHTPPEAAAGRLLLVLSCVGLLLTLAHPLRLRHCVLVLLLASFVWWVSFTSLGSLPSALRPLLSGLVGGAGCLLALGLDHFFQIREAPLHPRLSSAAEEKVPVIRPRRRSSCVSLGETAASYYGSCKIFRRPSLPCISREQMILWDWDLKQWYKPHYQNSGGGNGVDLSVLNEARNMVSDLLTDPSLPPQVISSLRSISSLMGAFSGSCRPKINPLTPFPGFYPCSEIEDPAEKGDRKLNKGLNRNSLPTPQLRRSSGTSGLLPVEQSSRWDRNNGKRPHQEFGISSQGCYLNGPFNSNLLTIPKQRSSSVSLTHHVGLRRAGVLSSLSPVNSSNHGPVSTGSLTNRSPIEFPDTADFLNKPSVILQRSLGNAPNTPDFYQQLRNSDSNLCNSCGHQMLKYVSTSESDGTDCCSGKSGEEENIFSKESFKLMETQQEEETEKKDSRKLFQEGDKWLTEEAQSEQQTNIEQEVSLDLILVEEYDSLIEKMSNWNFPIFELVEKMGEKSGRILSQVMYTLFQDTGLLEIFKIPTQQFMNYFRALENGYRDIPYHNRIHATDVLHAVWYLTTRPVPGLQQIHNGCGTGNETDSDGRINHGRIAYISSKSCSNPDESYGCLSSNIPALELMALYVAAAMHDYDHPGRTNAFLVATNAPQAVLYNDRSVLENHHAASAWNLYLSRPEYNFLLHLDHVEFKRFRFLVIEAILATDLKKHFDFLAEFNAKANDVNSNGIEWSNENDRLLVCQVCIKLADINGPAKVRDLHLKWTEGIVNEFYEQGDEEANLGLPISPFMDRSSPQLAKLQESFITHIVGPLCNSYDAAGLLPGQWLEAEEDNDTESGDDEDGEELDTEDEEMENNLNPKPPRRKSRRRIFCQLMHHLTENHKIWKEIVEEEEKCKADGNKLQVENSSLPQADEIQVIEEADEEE

In the case of `CCN1CC(=O)N2[C@H](c3ccc(Br)cc3)c3[nH]c4ccccc4c3C[C@@H]2C1=O` [Compound 29, (6R,12aR)-2-Ethyl-6-(4-bromophenyl)-2,3,6,7,12,12a-hexahydropyrazino [1′,2′:1,6]pyrido[3,4-b]indole-1,4-dione], the IC50 is greater than 50 µM against PDE1A; greater than 50 µM at PDE1A (setting [3]); greater than 50 µM at PDE2A; greater than 50 µM on PDE2A (setting [4]); 26.1 µM on PDE10A (setting [5]); 14.7 µM at PDE10A (setting [6]). The IC50 against PDE9A was greater than 50 µM; at PDE3B it was greater than 50 µM; at PDE3B (setting [7]), greater than 50 µM; at PDE3A, greater than 50 µM; at PDE3A (setting [8]), greater than 50 µM; on PDE11A (setting [9]) it was 0.3 µM. Further, the IC50 came out at 0.27 µM against PDE11A (setting [10]) and 0.003 µM on human PDE5 [1]. Also, the “selectivity profile (selectivity index) PDE5 versus PDE11” value on PDE11A came out at 90. Besides, the “times improved activity compared to five member congener 5” value on human PDE5 [1] (PDE5 IC50, 29 versus 5) is 1000 times. Further, the inhibition at 10 µM on human PDE5 [1] came out at 96%.
`CCN1C(=O)[C@@H]2Cc3c([nH]c4ccccc34)[C@@H](c3ccc(Br)cc3)N2C1=O` [Compound 8, (5R,11aS)-5-(4-Bromophenyl)-2-ethyl-5,6,11,11a-tetrahydro-1H-imidazo[1′,5′:1,6]pyrido[3,4-b]indole-1,3(2H)-dione]: the IC50 on PDE1A, on PDE1A (setting [3]), against PDE2A, on PDE2A (setting [4]), against PDE10A (setting [5]) and against PDE10A (setting [6]) was greater than 50 µM in each case. Moreover, the IC50 at PDE9A was greater than 50 µM; against PDE3B it was greater than 50 µM; at PDE3B (setting [7]), greater than 50 µM; against PDE3A, greater than 50 µM; on PDE3A (setting [8]), greater than 50 µM; against PDE11A (setting [9]), 44 µM. The IC50 stood at 35.7 µM against PDE11A (setting [10]) and 0.051 µM against human PDE5 [1]. In addition, the “selectivity profile (selectivity index) PDE5 versus PDE11” value at PDE11A came out at 700. The inhibition at 10 µM at human PDE5 [1] was found to be 101%.
In the case of `CN1CC(=O)N2[C@H](c3ccc(Br)cc3)c3[nH]c4ccccc4c3C[C@H]2C1=O` [Compound 28, (6R,12aS)-6-(4-Bromophenyl)-2-methyl-2,3,6,7,12,12a-hexahydropyrazino [1′,2′:1,6]pyrido[3,4-b]indole-1,4-dione], the IC50 against PDE1A, on PDE1A (setting [3]), against PDE2A, at PDE2A (setting [4]), on PDE10A (setting [5]) and on PDE10A (setting [6]) was greater than 50 µM in each case. In addition, the IC50 on PDE9A is greater than 50 µM; at PDE3B, greater than 50 µM; on PDE3B (setting [7]) it was greater than 50 µM; against PDE3A, greater than 50 µM; on PDE3A (setting [8]), greater than 50 µM; on PDE11A (setting [9]), 1.3 µM. For the same molecule, the IC50 on PDE11A (setting [10]) stood at 1.13 µM; against human PDE5 [1] it was 0.012 µM. In addition, on PDE11A, the “selectivity profile (selectivity index) PDE5 versus PDE11” value is 94. For the same molecule, the inhibition at 10 µM at human PDE5 [1] is 91%.
In the case of `CCCCN1CC(=O)N2[C@H](c3ccc(Br)cc3)c3[nH]c4ccccc4c3C[C@@H]2C1=O` [Compound 33], the IC50 at PDE1A (read-out: PDE1A inhibition IC50 μM, substrate cAMP) is greater than 50 µM; on PDE1A (setting [3]), greater than 50 µM; at PDE2A (read-out: PDE2A inhibition IC50 μM, substrate cAMP), greater than 50 µM; at PDE2A (setting [4]) it was greater than 50 µM; at PDE10A (read-out: PDE10A inhibition IC50 μM, substrate cAMP) it was greater than 50 µM; at PDE10A (read-out: PDE10A inhibition IC50 μM, substrate cGMP), greater than 50 µM. For the same molecule, the IC50 at PDE9A (read-out: PDE9A inhibition IC50 μM, substrate cGMP) is greater than 50 µM; on PDE3B (read-out: PDE3B inhibition IC50 μM, substrate cAMP), greater than 50 µM; on PDE3B (setting [7]) it was greater than 50 µM; at PDE3A (read-out: PDE3A inhibition IC50 μM, substrate cAMP), greater than 50 µM; on PDE3A (setting [8]), greater than 50 µM; at PDE11A (read-out: PDE11A inhibition IC50 μM, substrate cAMP) it was 1.2 µM. Besides, the IC50 at PDE11A (read-out: PDE11A inhibition IC50 μM, substrate cGMP) turned out to be 0.6 µM; at human PDE5 [1] (read-out: IC50 μM (PDE5), 8 concentrations 1 nM–10 μM) it was 0.009 µM; on human PDE5 [1] (read-out: PDE5A inhibition IC50 μM, substrate cAMP (as printed in sub-head)) it was 0.009 µM. Further, the “selectivity profile (selectivity index) PDE5 versus PDE11” value at PDE11A is given as 67. In addition, the “% PDE5 inhibition at 10 μM” value at human PDE5 [1] (10 μM, triplicate) is 87%.
In the case of `CN1CC(=O)N2[C@H](c3ccc4c(c3)OCO4)c3[nH]c4ccccc4c3C[C@@H]2C1=O` [Compound I, tadalafil, reference compound], the IC50 on PDE1A, at PDE1A (setting [3]), against PDE2A, on PDE2A (setting [4]), on PDE10A (setting [5]) and against PDE10A (setting [6]) was greater than 50 µM each time. For the same molecule, the IC50 against PDE9A, on PDE3B, on PDE3B (setting [7]), on PDE3A and at PDE3A (setting [8]) was greater than 50 µM each time. On human PDE5 [2], the “% PDE5 inhibition at 10 μM” value is reported as 100%.
On to `CN1CC(=O)N2[C@H](c3ccc(Br)cc3)c3[nH]c4ccccc4c3C[C@@H]2C1=O` [Compound 25, (6R,12aR)-6-(4-Bromophenyl)-2-methyl-2,3,6,7,12,12a-hexahydropyrazino [1′,2′:1,6]pyrido[3,4-b]indole-1,4-dione], for which the IC50 on PDE1A is greater than 50 µM; at PDE1A (setting [3]), greater than 50 µM; on PDE2A it was greater than 50 µM; at PDE2A (setting [4]), greater than 50 µM; against PDE10A (setting [5]), greater than 50 µM; on PDE10A (setting [6]), 41.7 µM. For the same molecule, the IC50 is greater than 50 µM against PDE9A; greater than 50 µM at PDE3B; greater than 50 µM at PDE3B (setting [7]); greater than 50 µM against PDE3A; greater than 50 µM on PDE3A (setting [8]); 0.6 µM against PDE11A (setting [9]). In addition, the IC50 on PDE11A (setting [10]) is 0.27 µM; against human PDE5 [1] it was 0.019 µM. The “selectivity profile (selectivity index) PDE5 versus PDE11” value on PDE11A is on record as 14. In addition, at human PDE5 [1], the inhibition at 10 µM turned out to be 98%.
In the case of `CCCCN1CC(=O)N2[C@@H](c3ccc(Br)cc3)c3[nH]c4ccccc4c3C[C@@H]2C1=O` [Compound 34, (6S,12aR)-2-Butyl-6-(4-bromophenyl)-2,3,6,7,12,12a-hexahydropyrazino [1′,2′:1,6]pyrido[3,4-b]indole-1,4-dione], on human PDE5 [1], the IC50 amounted to 6.6 µM and the inhibition at 10 µM came to 81.5%.

For orientation: IC50 means the concentration that gives 50% inhibition. The inhibition is the change of the read-out against control, counted positive when it falls.
